Experimental data published in PMC6446940 (ChemMedChem, 2018).
Read-outs that look alike come from different tables or passages of the source.

Key:
[1] = test system: HIV-1 Env pseudovirus ML274.W0M.ENV.B1; assay: Single-cycle assay, Paired Infant and Maternal Env clones
[2] = test system: HIV-1 Env pseudovirus QA790.204I.ENV.E2; assay: Single-cycle assay TZM-bl, Env pseudovirus panel
[3] = test system: HIV-1 Env pseudovirus 1054.TC4.1499; assay: Single-cycle assay TZM-bl, Env pseudovirus panel
[4] = test system: HIV-1 Env pseudovirus HIV-00836-2, clone 5; assay: Single-cycle assay TZM-bl, Env pseudovirus panel
Cytotoxicity = format: cell-based, human; conditions: human, freshly isolated and stimulated uninfected PBMC
[5] = test system: HIV-1 Env pseudovirus MJ613.W0M.ENV.A2; assay: Single-cycle assay, Paired Infant and Maternal Env clones
[6] = test system: HIV-1 Env pseudovirus MK184.W0M.ENV.E4; assay: as above
[7] = test system: HIV-1 Env pseudovirus HIV-16936-2, clone 21; assay: Single-cycle assay TZM-bl, Env pseudovirus panel
[8] = test system: HIV-1 panel of Paired Infant (B) and Maternal (M) Env Molecular Clones; assay: Single-cycle assay, means over Paired Infant and Maternal Env clones
[9] = test system: HIV-1 Env pseudovirus HIV-25711-2, clone 4; assay: Single-cycle assay TZM-bl, Env pseudovirus panel
[10] = test system: HIV-1 Env pseudovirus QA013.70I.ENV.H1; assay: Single-cycle assay TZM-bl, Env pseudovirus panel
[11] = test system: HIV-1 Env pseudovirus CRF02_AG, clone 33; assay: Single-cycle assay TZM-bl, Env pseudovirus panel
[12] = test system: HIV-1 Env pseudovirus WEAUd15.410.5017; assay: Single-cycle assay TZM-bl, Env pseudovirus panel
[13] = test system: HIV-1 Env pseudovirus QD435.100M.ENV.E1; assay: Single-cycle assay TZM-bl, Env pseudovirus panel
[14] = test system: HIV-1 Env pseudovirus BK184.W6M.ENV.D2; assay: Single-cycle assay, Paired Infant and Maternal Env clones
[15] = test system: HIV-1 Env pseudovirus TRO, clone 11; assay: Single-cycle assay TZM-bl, Env pseudovirus panel
[16] = test system: HIV-1 Env pseudovirus BG505.W6M.ENV.C2; assay: Single-cycle assay, Paired Infant and Maternal Env clones
[17] = test system: HIV-1 Env pseudovirus B41; assay: Single-cycle assay TZM-bl, Env pseudovirus panel
[18] = test system: HIV-1 Env pseudovirus REJO4541, clone 67; assay: Single-cycle assay TZM-bl, Env pseudovirus panel
[19] = test system: control pseudovirus VSV-G; assay: microbe, parasite or virus in culture; format: cell-based
[20] = test system: HIV-1 Env pseudovirus QH0692, clone 42; assay: Single-cycle assay TZM-bl, Env pseudovirus panel
[21] = test system: HIV-1 Env pseudovirus CRF02_AG, clone 253; assay: Single-cycle assay TZM-bl, Env pseudovirus panel
[22] = test system: HIV-1 Env pseudovirus QA790.204I.ENV.A4; assay: Single-cycle assay TZM-bl, Env pseudovirus panel
[23] = test system: HIV-1 Env pseudovirus Q259ENV.W6; assay: Single-cycle assay TZM-bl, Env pseudovirus panel
[24] = test system: HIV-1 Env pseudovirus KNH1144; assay: Single-cycle assay TZM-bl, Env pseudovirus panel
[25] = test system: HIV-1 Env pseudovirus Du422, clone 1; assay: Single-cycle assay TZM-bl, Env pseudovirus panel
[26] = test system: HIV-1 Env pseudovirus QD435.100M.ENV.B5; assay: Single-cycle assay TZM-bl, Env pseudovirus panel
[27] = test system: HIV-1 Env pseudovirus ZM109F.PB4; assay: Single-cycle assay TZM-bl, Env pseudovirus panel
[28] = test system: HIV-1 Env pseudovirus BL274.W6M.ENV.A3; assay: Single-cycle assay, Paired Infant and Maternal Env clones
[29] = test system: HIV-1 Env pseudovirus PVO, clone 4; assay: Single-cycle assay TZM-bl, Env pseudovirus panel
[30] = test system: HIV-1 Env pseudovirus CRF02_AG, clone 251; assay: Single-cycle assay TZM-bl, Env pseudovirus panel
[31] = test system: HIV-1 Env pseudovirus QA790.204I.ENV.C8; assay: Single-cycle assay TZM-bl, Env pseudovirus panel
[32] = test system: HIV-1 Env pseudovirus RHPA4259, clone 7; assay: Single-cycle assay TZM-bl, Env pseudovirus panel
[33] = test system: HIV-1 Env pseudovirus MI206.W0M.ENV.D1; assay: Single-cycle assay, Paired Infant and Maternal Env clones
[34] = target: HIV-1 Reverse Transcriptase (RT) (Human immunodeficiency virus type 1 group M subtype B, UniProt P04585); assay: biochemical; format: biochemical
[35] = Human immunodeficiency virus 1, read-out: IC50 Mean ± SEM: Infant (B)
[36] = Human immunodeficiency virus 1, read-out: IC50 Mean ± SEM: Mother (M)
[37] = Human immunodeficiency virus 1, read-out: IC50 Mean ± SEM: Overall (n=10)

SMILES: CNCC(NC(=O)c1ccc(-c2ccc3c(c2)OCO3)[nH]1)c1nc(CO)cs1 (centres unmarked) [NBD-14159, 5-(benzo[d][1,3]dioxol-5-yl)-N-(1-(4-(hydroxymethyl)thiazol-2-yl)-2-(methylamino)ethyl)-1H-pyrrole-2-carboxamide]
- IC50 [1]: 5.4 ± 0.5 µM
- IC50 ([2]; TZM-bl): 3.2 ± 0.2 µM
- IC50 ([3]; TZM-bl): 4.1 ± 0.1 µM
- IC50 ([4]; TZM-bl): 4.9 ± 0.3 µM
- CC50 at 7 days (Cytotoxicity): 68.3 ± 5 µM
- IC50 [5]: 3.1 ± 0.3 µM
- IC50 [6]: 2.6 ± 0.1 µM
- IC50 ([7]; TZM-bl): 5.3 ± 0.2 µM
- IC50 [8, 35]: 4e-06 ± 3e-07 M
- IC50 [8, 36]: 3.8e-06 ± 5e-07 M
- IC50 [8, 37]: 3.9e-06 ± 3e-07 M
- IC50 ([9]; TZM-bl): 5.8 ± 0.3 µM
- IC50 ([10]; TZM-bl): 4.3 ± 0.7 µM
- IC50 ([11]; TZM-bl): 2.7 ± 0.2 µM
- IC50 ([12]; TZM-bl): 3.3 ± 0.2 µM
- IC50 [13]: 3.5 ± 0.2 µM
- IC50 [14]: 4.2 ± 0.1 µM
- IC50 ([15]; TZM-bl): 4.4 ± 0.6 µM
- IC50 [16]: 4.7 ± 0.5 µM
- IC50 ([17]; TZM-bl): 1.7 ± 0.1 µM
- IC50 [18]: 3.1 ± 0.4 µM
- IC50 ([19]; Pseudovirus, U87/CD4/CCR5): 41.3 ± 3.4 µM
- IC50 ([20]; TZM-bl): 5.8 ± 0.7 µM
- IC50 [21]: 3.1 ± 0.1 µM
- IC50 ([22]; TZM-bl): 4 ± 0.4 µM
- IC50 ([23]; TZM-bl): 1.3 ± 0.2 µM
- IC50 [24]: 4 ± 0.3 µM
- IC50 ([25]; TZM-bl): 3.1 ± 0.3 µM
- IC50 ([26]; TZM-bl): 3.3 ± 0.2 µM
- IC50 ([27]; TZM-bl): 3.3 ± 0.1 µM
- IC50 [28]: 4.2 ± 0.5 µM
- IC50 ([29]; TZM-bl): 4.3 ± 0.7 µM
- IC50 ([30]; TZM-bl): 3.5 ± 0.1 µM
- IC50 ([31]; TZM-bl): 2.1 ± 0.1 µM
- IC50 ([32]; TZM-bl): 3.7 ± 0.4 µM
- IC50 [33]: 3.4 ± 0.2 µM

SMILES: NCC(NC(=O)c1ccc(-c2ccc3c(c2)OCO3)[nH]1)c1ncc(CO)s1 (centres unmarked) [NBD-14123, N-(2-amino-1-(5-(hydroxymethyl)thiazol-2-yl)ethyl)-5-(benzo[d][1,3]dioxol-5-yl)-1H-pyrrole-2-carboxamide]
- IC50 [1]: 5.6 ± 0.4 µM
- IC50 ([2]; TZM-bl): 2.5 ± 0.3 µM
- IC50 ([3]; TZM-bl): 2.4 ± 0.3 µM
- IC50 ([4]; TZM-bl): 3.2 ± 0.2 µM
- CC50 at 7 days (Cytotoxicity): 61.3 ± 4 µM
- IC50 [5]: 4 ± 0.1 µM
- IC50 [6]: 3.7 ± 0.1 µM
- IC50 ([7]; TZM-bl): 4.4 ± 0.5 µM
- IC50 [8, 35]: 4.2e-06 ± 6e-07 M
- IC50 [8, 36]: 4.1e-06 ± 4e-07 M
- IC50 [8, 37]: 4.2e-06 ± 3e-07 M
- IC50 ([9]; TZM-bl): 5.7 ± 0.7 µM
- IC50 ([10]; TZM-bl): 2.5 ± 0.4 µM
- IC50 ([11]; TZM-bl): 3.5 ± 0.4 µM
- IC50 [34]: 39.5 ± 2.8 µM
- IC50 ([12]; TZM-bl): 3.4 ± 0.2 µM
- IC50 [13]: 5.3 ± 0.4 µM
- IC50 [14]: 3.6 ± 0.1 µM
- IC50 ([15]; TZM-bl): 3.6 ± 0.2 µM
- IC50 [16]: 4.4 ± 0.1 µM
- IC50 ([17]; TZM-bl): 2.8 ± 0.3 µM
- IC50 [18]: 3.4 ± 0.2 µM
- IC50 ([19]; Pseudovirus, U87/CD4/CCR5): 45.3 ± 2.3 µM
- IC50 ([20]; TZM-bl): 6.4 ± 0.1 µM
- IC50 [21]: 3.2 ± 0.2 µM
- IC50 ([22]; TZM-bl): 1.6 ± 0.1 µM
- IC50 ([23]; TZM-bl): 2.3 ± 0.2 µM
- IC50 [24]: 4.1 ± 0.4 µM
- IC50 ([25]; TZM-bl): 2.5 ± 0.3 µM
- IC50 ([26]; TZM-bl): 3.5 ± 0.3 µM
- IC50 ([27]; TZM-bl): 3 ± 0.2 µM
- IC50 [28]: 5.7 ± 0.3 µM
- IC50 ([29]; TZM-bl): 1.9 ± 0.2 µM
- IC50 ([30]; TZM-bl): 3.1 ± 0.2 µM
- IC50 ([31]; TZM-bl): 1.4 ± 0.2 µM
- IC50 ([32]; TZM-bl): 3.1 ± 0.7 µM
- IC50 [33]: 3.4 ± 0.3 µM

SMILES: Cc1nc([C@@H](CN)NC(=O)c2ccc(-c3ccc(F)c(F)c3)[nH]2)sc1CO (single isomer, unassigned) [NBD-14113, reference compound]
- IC50 ([1]; subtype A, NIH # 11540-M (maternal), ML274.W0M.ENV.B1): 4.5 ± 0.6 µM
- IC50 ([2]; subtype A1/D, NIH # 11904, QA790.204I.ENV.E2, TZM-bl cells): 3 ± 0.1 µM
- IC50 ([3]; subtype B, NIH # 11561, 1054.TC4.1499, TZM-bl cells): 3.6 ± 0.2 µM
- IC50 ([4]; subtype C, NIH # 11500, HIV-00836-2, clone 5, TZM-bl cells): 4.3 ± 0.4 µM
- IC50 ([5]; subtype A, NIH # 11534-M (maternal), MJ613.W0M.ENV.A2): 4.9 ± 0.2 µM
- IC50 ([6]; subtype C/D, NIH # 11536-M (maternal), MK184.W0M.ENV.E4): 2.6 ± 0.3 µM
- IC50 ([7]; subtype C, NIH # 11504, HIV-16936-2, clone 21, TZM-bl cells): 5.9 ± 0.2 µM
- IC50 ([8]; read-out: IC50 Mean ± SEM: Infant (B), mean over infant clones): 4.3e-06 ± 5e-07 M
- IC50 ([8]; read-out: IC50 Mean ± SEM: Mother, mean over maternal clones): 4e-06 ± 4e-07 M
- IC50 ([9]; subtype C, NIH # 11506, HIV-25711-2, clone 4, TZM-bl cells): 4.7 ± 0.4 µM
- IC50 ([10]; subtype D, NIH # 11911, QA013.70I.ENV.H1, TZM-bl cells): 3.5 ± 0.1 µM
- IC50 ([11]; subtype AG, NIH # 11607, CRF02_AG, clone 33, TZM-bl cells): 3.5 ± 0.2 µM
- IC50 ([34]; HIV-1 Reverse Transcriptase, mean ± SD, n=3): 45.9 ± 3.6 µM
- IC50 ([12]; subtype B, NIH # 11578, WEAUd15.410.5017, R5X4-tropic virus, TZM-bl cells): 3.7 ± 0.3 µM
- IC50 ([14]; subtype C/D, NIH # 11522-B (infant), BK184.W6M.ENV.D2): 3.6 ± 0.2 µM
- IC50 ([15]; subtype B, NIH # 11023, TRO, clone 11, TZM-bl cells): 5.1 ± 0.1 µM
- IC50 ([16]; subtype A, NIH # 11518-B (infant), BG505.W6M.ENV.C2): 4.4 ± 0.3 µM
- IC50 ([17]; subtype B, B41, TZM-bl cells): 3.4 ± 0.1 µM
- IC50 [19]: 26.3 ± 1.4 µM
- IC50 ([20]; subtype B, NIH # 11018, QH0692, clone 42, TZM-bl cells): 4.3 ± 0.4 µM
- IC50 ([22]; subtype A1/D, NIH # 11901, QA790.204I.ENV.A4, TZM-bl cells): 5.5 ± 0.3 µM
- IC50 ([23]; subtype A, NIH # 11887, Q259ENV.W6, TZM-bl cells): 2.1 ± 0.3 µM
- IC50 ([25]; subtype C, NIH # 11308, Du422, clone 1, TZM-bl cells): 3 ± 0.1 µM
- IC50 ([26]; subtype D, NIH # 11916, QD435.100M.ENV.B5, TZM-bl cells): 2.2 ± 0.3 µM
- IC50 ([27]; subtype C, NIH # 11314, ZM109F.PB4, TZM-bl cells): 1.9 ± 0.1 µM
- IC50 ([28]; subtype A, NIH # 11525-B (infant), BL274.W6M.ENV.A3): 5.7 ± 0.3 µM
- IC50 ([29]; subtype B, NIH # 11022, PVO, clone 4, TZM-bl cells): 4 ± 0.3 µM
- IC50 ([30]; subtype AG, NIH # 11595, CRF02_AG, clone 251, TZM-bl cells): 3 ± 0.2 µM
- IC50 ([31]; subtype A1/D, NIH # 11903, QA790.204I.ENV.C8, TZM-bl cells): 4.3 ± 0.1 µM
- IC50 ([32]; subtype B, NIH # 11036, RHPA4259, clone 7, TZM-bl cells): 3.7 ± 0.4 µM
- IC50 ([33]; subtype A, NIH # 11531-M (maternal), MI206.W0M.ENV.D1): 3.4 ± 0.2 µM
